Tests used:
Hep3B = assay: MTT cytotoxic assay; type: cell-based, human; conditions: Homo sapiens, Hep3B, 48 h, mean value ± SD
Protocol: (§1) Three human hepatocarcinoma cell lines (SMMC-7721, HepG2 and Hep3B) and normal hepatocyte cell line (QSG-7701) were maintained in Dulbecco Modified Eagle Medium (DMEM) containing 4.0 mM L-Glutamine and 4500 mg/l Glucose supplemented with 10% (v/v) foetalbovine serum (FBS) and 100 unites/mL penicillin/streptomycin at 37 °C in humidified atmosphere of 5% CO2 and 95% air.
(§2) The in vitro cytotoxic activities of the carbazole derivatives of DHA were evaluated against three human hepatocarcinoma cell lines (SMMC-7721, HepG2 and Hep3B) and a normal human hepatocyte cell line (QSG-7701) via the MTT colorimetric method. Briefly, SMMC-7721, HepG2, Hep3B and QSG-7701 cells were harvested at log phase of growth and seeded in 96-well plates (100 µL/well at a density of 2 × 10^5 cells/mL). After 24 h incubation at 37 °C and 5% CO2 to allow cell attachment, cultures were exposed to various concentrations of the isolated compounds for 48 h. Finally, MTT solution (2.5 mg/mL in PBS) was added (40 µL/well). Plates were further incubated for 4 h at 37 °C, and the formazan crystals formed were dissolved by adding 150 µL/well of DMSO. Absorption at 570 nm was measured with an ELISA plate reader. […] Doxorubicin was co-assayed as positive control.

HepG2 = assay: MTT cytotoxic assay; type: cell-based, human; conditions: Homo sapiens, HepG2, 48 h, mean value ± SD
Protocol: as §1, §2

SMMC-7721 = assay: MTT cytotoxic assay; type: cell-based, human; conditions: Homo sapiens, SMMC-7721, 48 h, mean value ± SD
Protocol: as §1, §2

MEK1 = target: T1, MEK1 (Homo sapiens, UniProt Q02750); assay: In vitro MEK1 inhibition assay (ADP-Glo kinase assay); type: biochemical; conditions: recombinant GST-MEK1, GST-ERK2, 10 µM ATP, mean value ± SD; read-out: MEK1 inhibitory activity IC50 value
T1 construct: purchased Carna Biosciences, Japan
Protocol: An in vitro kinase assay of MEK1 was performed using ADP-Glo kinase assay (Promega, Madison, WI, USA) according to the manufacturer’s protocol. […] Reactions were stopped by adding 5 µL of ADP-Glo reagent to each well. After incubating at 22 °C for 40 min, 10 µL of the kinase detection reagent was added and the plates were incubated for another 30 min at 22 °C in the dark. The reaction mixture was analysed by EnSpire (PerkinElmer, Waltham, MA, USA). U0126 was used as the positive control for MEK1 inhibition.

HepG2 cells [1] = assay: ROS generation assay (DCFH-DA); type: cell-based, human; conditions: dose-dependent
Protocol: Reactive oxygen species (ROS) generation assay was performed by using the reactive oxygen species assay kit (Beyotime Biotech., China). Intracellular ROS generation was tested through dichlorodihydro fluorescein diacetate (DCFH-DA) assay. DCFH-DA is taken up by HepG2 cells, and then activated by esterase-mediated cleavage of acetate to form dichlorodihydro fluorescein (DCFH), which is trapped in the cells. DCFH is converted to fluorescein DCF in the presence of ROS. HepG2 cells were seeded in six-well plates and incubated with different concentrations of compound 10g for 24 h. After removing the compound solution, cells were treated with 10 µM of DCFH-DA at 37 °C for 20 min. Subsequently, the cells were washed with PBS for three times and then exposed to light. Immediately after light exposure, cell images were acquired through an inverted fluorescence microscope (Olympus 1X71 Inverted System Microscope, Olympus, Tokyo, Japan).

[2] = Cell death inhibition assay; type: cell-based, human; conditions: human, HepG2 cells, 10g alone, 10 µM, read-out: relative cell viability of HepG2 cells
Protocol: Figure 6. Compound 10g induced oncosis and apoptosis of HepG2 cells. (a) PD150606 and Z-VAD-FMK partially reversed compound 10g-induced cell death. HepG2 cells were incubated with PD150606, Z-VAD-FMK or Necrostatin-1 at indicated concentration for 24 h alone or in combination with compound 10g at indicated concentration for 24 h. (b) Compound 10g induced the degradation of α-tubulin and β-actin, and activated oncosis marker calpain-1 autolysis from the 80 kDa event to 76 kDa event in western blot analysis. *, p < 0.01; **, p < 0.01; #, p < 0.01; &, p < 0.001. (c) Compound 10g induced the upregulation of apoptotic protein Bax, caspase-3, caspase-9 and plasmic cytochrome c levels, and the downregulation of antiapoptotic protein Bcl-2 level. *, p < 0.001; **, p < 0.01; #, p < 0.01; and p < 0.01.

HepG2 cells [3] = assay: Western blot of oncosis and apoptosis markers; type: cell-based, human
Protocol: HepG2 cells were seeded at a density of 5 × 10^6 cells per well and attached for 8 h, and then treated with different concentrations of compound 10g for 48 h. After the treatment, the cells were harvested and washed twice with PBS. The harvested cells were lysed with radio-immunoprecipitation assay (RIPA) lysis buffer (Beyotime Biotech., Nantong, China) with 1% cocktail (Sigma-Aldrich, USA). Whole-cell protein lysates were prepared and centrifuged at 12,000 rpm for 10 min at 4 °C. The total proteins were determined using Bradford reagent (Bio-Rad Laboratories, Inc., USA). Exactly 40 µg of protein per lane was separated through sodium dodecyl sulfate-polyacrylamide gel electrophoresis and then transferred onto a polyvinylidene difluoride membrane (Millipore, Bedford, MA, USA). The membranes were incubated with each antibody and detected through immunoblot analysis. All of the antibodies were purchased from Cell signaling Technology, Inc. (Boston, MA, USA) and diluted in accordance with the manufacturer’s instruction. Proteins were visualized using a C-Digit® imaging system (LI-COR Biosciences, Lincoln, NE, USA).

T1 sequence (Q02750 whole entry): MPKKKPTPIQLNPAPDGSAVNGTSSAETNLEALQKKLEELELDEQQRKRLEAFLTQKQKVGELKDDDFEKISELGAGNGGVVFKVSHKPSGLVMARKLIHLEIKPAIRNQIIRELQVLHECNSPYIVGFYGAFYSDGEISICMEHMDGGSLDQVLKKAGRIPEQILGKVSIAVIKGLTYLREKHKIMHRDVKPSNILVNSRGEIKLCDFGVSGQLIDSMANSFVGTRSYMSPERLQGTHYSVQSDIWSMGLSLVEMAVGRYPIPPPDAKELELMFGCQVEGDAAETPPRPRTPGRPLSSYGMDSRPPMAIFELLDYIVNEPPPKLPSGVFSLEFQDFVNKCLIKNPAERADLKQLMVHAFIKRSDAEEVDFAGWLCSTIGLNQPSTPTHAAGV

CCOc1ccc2c(c1)c1c(n2CCN2CCNCC2)-c2cc(C(C)C)ccc2C2(C)CCCC(C)(C(=O)OC)C12 (stereo not shown) [Compound 10g, 2,3,4,4a,9,13c-Hexahydro-12-ethoxy-7-isopropyl-1,4a-dimethyl-9–(2-(piperazin-1-yl)ethyl)-1H-dibenzo[a,c]carbazole-1-carboxylic acid methyl ester]
IC50 (Hep3B): 730 ± 80 nM
IC50 (HepG2): 510 ± 90 nM
IC50 (SMMC-7721): 1390 ± 130 nM
IC50 (MEK1): 110 ± 20 nM
ROS generation (in words) (HepG2 cells [1]): remarkably induce ROS generation
viability at 24 h, 10 µM [2]: 1.22%
level of cytochrome c, caspase-3 and caspase-9 (in words) (HepG2 cells [3]): increased dose-dependently
ratio of Bax/Bcl-2 (in words) (HepG2 cells [3]): increased significantly
calpain-1 autolysis (in words) (HepG2 cells [3]; 48 h): autolysed from 80 kDa event to 76 kDa event in a dose-dependent manner
level of α-tubulin and β-actin (in words) (HepG2 cells [3]; dose-dependent): significant decrease

From PMC6720511, “Synthesis and biological evaluation of novel N-(piperazin-1-yl)alkyl-1H-dibenzo[a,c]carbazole derivatives of dehydroabietic acid as potential MEK inhibitors” (Journal of Enzyme Inhibition and Medicinal Chemistry, 2019)
